# From US20250099420A1, “SMALL MOLECULE MODULATORS OF GPR139 COMPLEX” (University of Florida Research Foundation, Incorporated, priority 2022, published 2025)
# pEC50: −log10 of the molar value.
# Tests used:
# [1] = tested on: parental HEK cells; test: HEK parental Antagonist Counterscreen Assay (non-transfected cells, acetylcholine control); assay type: cell-based
# From the text: C. […] The HEK parental counterscreen utilized the same cells but not transfected with the plasmid. The agonist and antagonist modes were run the same way as the primary screen but acetylcholine was used in place of GPR139 agonist as the control compound.
# The HEK parental counterscreen utilized the same cells but not transfected with the plasmid. The antagonist modes assays utilized the cells being plated in the 1536 well plate overnight in growth media prior to dye loading in PDL coated plates and acetylcholine was used in place of GPR139 agonist as the control compound.
# (§1) The HEK parental counterscreen utilized the same cells but not transfected with the plasmid. Acetylcholine was used in place of GPR139 agonist as the control compound. The cells were plated overnight, similar to the HEK antagonist counterscreen protocol.
# The HEK parental counterscreens utilized the same cells but not transfected with the plasmid. Acetylcholine was used in place of GPR139 agonist as the control compound. The cells were plated overnight, similar to the HEK antagonist counterscreen protocol.
# (§2) For each test compound, percent activation was plotted against compound concentration. A four parameter equation describing a sigmoidal dose-response curve was then fitted with adjustable baseline using Assay Explorer software (Symyx Technologies Inc.).
# [2] = molecular target: T1, GPR139 (Homo sapiens, UniProt Q6DWJ6)
# T1 sequence (Q6DWJ6 1-353): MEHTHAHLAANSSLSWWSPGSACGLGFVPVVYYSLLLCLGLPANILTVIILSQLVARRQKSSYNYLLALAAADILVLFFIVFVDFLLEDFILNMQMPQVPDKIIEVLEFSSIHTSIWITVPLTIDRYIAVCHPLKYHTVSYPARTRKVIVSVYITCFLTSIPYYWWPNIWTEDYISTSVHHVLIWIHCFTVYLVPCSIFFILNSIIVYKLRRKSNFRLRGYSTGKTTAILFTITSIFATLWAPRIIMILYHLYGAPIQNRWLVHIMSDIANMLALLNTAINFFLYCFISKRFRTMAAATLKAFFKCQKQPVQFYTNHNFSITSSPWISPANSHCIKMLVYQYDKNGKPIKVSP
# Method: (§3) GPR activity was assessed using a calcium detection assay. GPR139 agonists stimulate an increase in intracellular calcium in HEK-GPR139 cells. Agonists increase the release of intracellular calcium, while antagonists decrease the release of intracellular calcium, as compared to an EC80 stimulation of the know agonist S-JNJ-63533054. The positive control for the agonist mode was cells treated with EC100 of known agonist S-JNJ-63533054. Negative control samples were treated with DMSO. The antagonist high control in cells was EC80 of S-JNJ-63533054+IC100 S-JNJ-3792165, while cells were treated with EC80 of S-JNJ-63533054+DMSO for the low control. Intracellular calcium was measured using Calcium 5.
# (§4) HEK cells were transfected the DNA encoding GPR139 and incubated for 24 hours. 3000 cells/well in 3 μL HEPES and 1% DMSO were seeded into 1536-well plates. 3 μL Calcium 5 was then added to each well and cells were incubated for 60 min. at 37° C. in 5% CO2 and 95% relative humidity. Cells were pretreated with 50 nL DMSO (5 min. at room temperature in the dark) to stabilize response and desensitize cells to DMSO. A 5 second basal read was recorded and compounds in 30 nL were added to the cells, followed by a 150 second read.
# (§5) B. Antagonist Mode: The “High Control” represented wells containing cells with GPR139+Antagonist IC100+Agonist EC80. “Low Control” represented wells containing cells with GPR139 with EC100 Agonist. “0% control” and sample field represented wells containing cells with GPR139 with EC80 Agonist with DMSO or compounds. The Z′ and S:B for this assay were calculated using the High Control and Low Control wells.
# as §1
# (§6) The GPR139 Agonist and Antagonist titration assays employed the same reagents, protocols, and detection systems as the primary assays, but tested each as 10 point dose response starting at 676 nM concentration in triplicate with 1:3 dilutions. The HEK parental counterscreens utilized the same cells but not transfected with the plasmid. Acetylcholine was used in place of GPR139 agonist as the control compound. The cells were plated overnight, similar to the HEK antagonist counterscreen protocol.
# as §2
# [3] = molecular target: T1, GPR139; test: GPR139 Agonist titration / agonist counterscreen assay (calcium detection, HEK-GPR139 cells); assay type: cell-based; parameters: expressed in transfected cells; host or cells: HEK Aequorin cells, Maxcyte transient transfection; conditions: agonist counterscreen of the antagonists; for pEC50: scientific notation, molarity, read-out: GRP139 Agonist activity EC50
# Method: GPR activity was assessed using a calcium detection assay. […] Negative control samples were treated with DMSO. […] Intracellular calcium was measured using Calcium 5.
# [4] = molecular target: T1, GPR139; test: GPR139 Antagonist titration assay (calcium detection, HEK-GPR139 cells, vs EC80 of S-JNJ-63533054); conditions: for GPR139 Antagonist Activity Averaged Max % Response (±St. Dev.): activity relative to known control; for GPR139 Antagonist Activity Hill Slope: fitted dose-response curve
# Method: as §3, §4, §5, §1, §6, §2
GPR139 Antagonist Activity Lipophilic Efficiency (logD) [2],GPR139 Antagonist Activity Lipophilic Efficiency (logP) [2],GRP139 Agonist activity Averaged Max % Response (±St. Dev.) [3],pEC50 [3],GPR139 Antagonist Activity Ligand Efficiency [4],GPR139 Antagonist Activity Averaged Max % Response (±St. Dev.) [4] [%],GPR139 Antagonist Activity Hill Slope [4],GRP139 Agonist activity Hill Slope [3],Compound,HEK antagonist activity Averaged Max % Response (±St. Dev.) [1] [%]
0.81,0.81,1.62 ± 7.06%,< 4.92,0.24,86.39 ± 3.49,0.71,,Cc1ccc(CNC(=O)CSc2nc3ccsc3c(=O)n2NC(=O)c2cccc(Br)c2)cc1 [SR-01000564946],30.88 ± 11.77
2.05,1.85,4.26 ± 2.46%,< 4.86,0.18,68.96 ± 6.17,0.63,,O=C(NCCCN1CCCC1=O)c1ccc(NCc2ccc(F)cc2)c(S(=O)(=O)Nc2cccc(C(F)(F)F)c2)c1 [SR-01000575726],42.61 ± 24.54
−546.E−3,−780.8E−3,96.44 ± 1.50%,4.88,0.18,94.71 ± 3.14,0.39,10.54,COc1ccc(C2=NN(C3CCCCCC3)C(=O)[C@@H]3CC=CC[C@@H]23)cc1OCCCCOc1ccc(-c2nn[nH]n2)cc1 [SR-05000022540],6.21 ± 10.10
4.02,0.66,19.36 ± 5.93%,< 4.85,0.27,67.66 ± 7.67,2.60,,O=C(Nc1ccccc1C(=O)O)c1ccc(Oc2ccc([N+](=O)[O-])cc2)cc1 [SR-01000201144],81.74 ± 3.36
−850.1E−3,−850.1E−3,9.47 ± 9.31%,< 4.92,0.23,81.12 ± 9.72,0.67,,CCc1ccccc1NC(=O)CSc1nnc(-c2ccccc2)c(-c2ccccc2)n1 [SR-01000581835],8.20 ± 4.35
−1.5E+0,−1.5E+0,4.27 ± 6.30%,< 4.96,0.24,69.32 ± 5.67,1.62,,Cc1ccc(-c2cn(-c3ccccc3)c(SCC(=O)Nc3ccccc3C)n2)cc1 [SR-01000555444],6.69 ± 8.37
−672.3E−3,−672.4E−3,−854E−3 ± 6.10 ^ %,< 4.84,0.25,71.06 ± 5.55,0.45,,O=C(CSc1nc(-c2ccccc2)cn1-c1ccccc1)Nc1ccc(F)cc1 [SR-01000555394],31.37 ± 1.24
−708.8E−3,−708.9E−3,−4.8E+0 ± 5.84 ^ %,< 4.87,0.24,86.26 ± 1.14,0.79,,COc1ccc(-n2cc(-c3ccccc3)nc2SCC(=O)Nc2ccccc2C)cc1 [SR-01000555409],31.02 ± 1.30
−1.9E+0,−1.9E+0,7.97 ± 3.98%,< 4.92,0.24,69.58 ± 6.90,1.30,,Cc1ccc(-n2cc(-c3ccccc3)nc2SCC(=O)Nc2cccc(C)c2C)cc1 [SR-01000555460],8.34 ± 10.04
1.95,1.94,8.07 ± 1.27%,< 4.85,0.28,90.37 ± 1.31,0.68,,Cc1cc(C(=O)N/N=C/c2cn(Cc3ccccc3)c3ccccc23)n[nH]1 [SR-01000110742],24.28 ± 7.95
−1.3E+0,−1.3E+0,2.28 ± 5.10%,< 4.88,0.24,52.97 ± 3.58,0.71,,Cc1ccc(-n2cc(-c3ccccc3)nc2SCC(=O)Nc2ccccc2)cc1 [SR-01000555455],6.61 ± 6.46
−954.3E−3,−954.4E−3,5.29 ± 2.24%,< 4.85,0.25,77.29 ± 7.71,1.40,,Cc1ccc(-n2cc(-c3ccccc3)nc2SCC(=O)Nc2ccc(F)cc2)cc1 [SR-01000555461],0.37 ± 8.79
−768.6E−3,−768.8E−3,13.90 ± 4.27%,< 4.88,0.28,90.42 ± 3.10,0.57,,Cc1cccc(-n2cc(-c3ccccc3)nc2SCC(=O)Nc2ccccc2C)c1 [SR-01000555475],9.07 ± 0.74
−548.5E−3,−548.6E−3,12.88 ± 6.35%,< 4.88,0.26,78.69 ± 5.10,0.44,,COc1ccccc1-n1cc(-c2ccccc2)nc1SCC(=O)Nc1cccc(C)c1C [SR-01000555431],3.15 ± 12.32
−52.3E−3,−52.4E−3,3.20 ± 6.96%,< 4.95,0.24,54.78 ± 3.56,1.21,,CC(C)C(=O)N1CCN(c2nc(-c3ccccc3)c3c(c2C#N)CCCC3)CC1 [SR-01000000597],14.40 ± 10.68
